Consider 15 compounds from BindingDB's records for doi:10.1021/jm000468c (Abbott Laboratories, 2001).

The test is described as follows: Inhibitory activity was determined against Neuraminidase A from influenza virus A/Tokyo/3/67.
Broadly, the IC50 is the midpoint of a concentration-inhibition curve. Compound `CC(C)N(C(=O)N1C[C@H](N)[C@H](C(=O)O)C1)C(C)C` [4-Amino-1-diisopropylcarbamoyl-pyrrolidine-3-carboxylic acid] returned an IC50 of 4 µM. Then `CC(C)N(CCCC(=O)O)C(=O)N1C[C@H](N)[C@H](C(=O)O)C1` [4-Amino-1-[(3-carboxy-propyl)-isopropyl-carbamoyl]-pyrrolidine-3-carboxylic acid], with 19 µM; and `CC(C)N(CCCO)C(=O)N1C[C@H](N)[C@H](C(=O)O)C1` [4-Amino-1-[(3-hydroxy-propyl)-isopropyl-carbamoyl]-pyrrolidine-3-carboxylic acid], with 2.1 µM; and `CCN(C(=O)N1C[C@H](N)[C@H](C(=O)O)C1)C(C)C` [4-Amino-1-(ethyl-isopropyl-carbamoyl)-pyrrolidine-3-carboxylic acid], with 1.6 µM.

`CC(C)N(CCCN)C(=O)N1C[C@H](N)[C@H](C(=O)O)C1` [4-Amino-1-[(3-amino-propyl)-isopropyl-carbamoyl]-pyrrolidine-3-carboxylic acid] displayed an IC50 of 46 µM. For `CC(C)N(CCO)C(=O)N1C[C@H](N)[C@H](C(=O)O)C1` [4-Amino-1-[(2-hydroxy-ethyl)-isopropyl-carbamoyl]-pyrrolidine-3-carboxylic acid], the IC50 came to 21 µM. The same measure for `CC(C)N(CCCCC(=O)O)C(=O)N1C[C@H](N)[C@H](C(=O)O)C1` [4-Amino-1-[(4-carboxy-butyl)-isopropyl-carbamoyl]-pyrrolidine-3-carboxylic acid]: 1.3 µM; for `CCCN(CCC)C(=O)N1C[C@H](N)[C@H](C(=O)O)C1` [4-Amino-1-dipropylcarbamoyl-pyrrolidine-3-carboxylic acid]: 32 µM; for `CC(C)(C)OC(=O)N1C[C@@H](N)[C@@H](C(=O)O)C1` [A-87380]: 50 µM. The same measure for `CCC(CC)C(=O)N1C[C@H](N)[C@H](C(=O)O)C1` [4-Amino-1-(2-ethyl-butyryl)-pyrrolidine-3-carboxylic acid]: 22 µM; for `CC(C)N(CCc1ccccn1)C(=O)N1C[C@H](N)[C@H](C(=O)O)C1` [4-Amino-1-[isopropyl-(2-pyridin-2-yl-ethyl)-carbamoyl]-pyrrolidine-3-carboxylic acid]: 1.3 µM; for `CC(C)N(CCCCCO)C(=O)N1C[C@H](N)[C@H](C(=O)O)C1` [4-Amino-1-[(5-hydroxy-pentyl)-isopropyl-carbamoyl]-pyrrolidine-3-carboxylic acid]: 2 µM.

`CC(C)N(C(=O)N1C[C@H](C(=O)O)[C@H](N=C(N)N)C1)C(C)C` [1-Diisopropylcarbamoyl-4-guanidino-pyrrolidine-3-carboxylic acid] returned an IC50 of 13 µM. Then `CCN(CC)C(=O)N1C[C@H](N)[C@H](C(=O)O)C1` [4-Amino-1-diethylcarbamoyl-pyrrolidine-3-carboxylic acid], with 25 µM; and `CCN(C(=O)N1C[C@@H](C(=O)O)[C@@H](N)[C@@H]1CNC(C)=O)C(C)C` [5-(Acetylamino-methyl)-4-amino-1-(ethyl-isopropyl-carbamoyl)-pyrrolidine-3-carboxylic acid], with 7.5 µM.
